Like-named read-outs stand apart in the source and are kept apart here.
Key:
CB2R [1] = molecular target: CB2R; parameters: method as in PMID 7776818, PMID 36542836, PMID 36657299, PMID 20393015; details: ± SEM; read-out: CB2R affinity Ki; cited from earlier work
HGC27-R cells [2] = assay: MTT cytotoxicity assay; assay type: cell-based, human; details: read-out: Cytotoxic activity IC50±SEM
Protocol: (§1) Cell viability was checked with the MTT assay at 48 h and 72 h [24]in HGC27-S/R and AGS gastric cancer cell lines. On day 1, 5000 cells/well were seeded into 96-well plates in a volume of 100 µL. On day 2, each drug was added at the concentrations: 0.1µM, 1µM, 10µM, 30µM, 50µM, 100µM. In all the experiments, the various drug-solvents (ethanol, DMSO) were added in each control to evaluate a possible solvent cytotoxicity. After the established incubation time with drugs (48 h, 72 h), MTT (0.5 mg/mL) was added to each well, and after 3 h incubation at 37 °C, the supernatant was removed. The formazan crystals were solubilized using 100 µL of DMSO and the absorbance values at 570 and 630 nm were determined on the microplate reader Victor 3 from PerkinElmer Life Sciences. Results are expressed as mean ± SD of 3 independent experiments in triplicate.

AGS cells = assay: MTT cytotoxicity assay; assay type: cell-based, human; details: read-out: Cytotoxic activity IC50±SEM
Protocol: as §1

HGC27-S cells [3] = assay: MTT cytotoxicity assay; assay type: cell-based, human; details: read-out: Cytotoxic activity IC50±SEM
Protocol: as §1

HGC27-S cells [4] = assay: Western blot of proliferation pathway proteins; assay type: cell-based, human; details: 48 h, 6 µM AM630, 10 µM agonists
Protocol: Western Blotting analysis was performed as previously described in both HGC27-S/R and AGS cells. Briefly, for each experimental condition the cells were lysed in ice-cold lysis buffer (50 mM Tris, 10 mM EDTA, 1% v/v Triton-X100), supplemented with the protease/phosphatase inhibitor cocktail set (Merck KGaA, Darmstadt, Germany), incubated on ice for 15 min and centrifuged at 13,000 × g for 15 min at 4 °C. Protein extracts were quantified by Micro BCA™ Protein Assay Kit (Thermo Fisher Scientific Inc., MA USA) and 40 µg of total protein extract was loaded on SDS-PAGE and immunoblotted with the following antibodies: CB1R and CB2R (1:500, rabbit polyclonal, Abcam, Cambridge, UK), P-TSC2 (Ser939) and TSC2 (1:1000Cell Signaling, Beverly, MA, USA), PI3K (1:1000Cell Signaling, Beverly, MA, USA), P-P70 (Thr389) and P70 (1:1000Cell Signaling, Beverly, MA, USA), P-Akt (Ser473 Thr308) and Akt (1:1000Cell Signaling, Beverly, MA, USA), P-S6 (Ser235/236) and S6 (1:1000Cell Signaling, Beverly, MA, USA), 4EBP1(1:1000Cell Signaling, Beverly, MA, USA), P-ERK(Thr202/Tyr204) and ERK (1:1000Cell Signaling, Beverly, MA, USA), PPRγ (1:1000Cell Signaling, Beverly, MA, USA), Phospho-SAPK/JNK (Thr183/Tyr185) and JNK2 (1:1000 Cell Signaling, Beverly, MA, USA), Phospho-c-Jun (Ser63) and c-Jun (1:1000 Cell Signaling, Beverly, MA, USA), caspase 3/7 (1:1000 Cell Signaling, Beverly, MA, USA), Phospho-βcatenin (Ser675) and βcatenin (1:1000 Cell Signaling, Beverly, MA, USA), vimentin (1:1000Cell Signaling, Beverly, MA, USA), P-cofillin (Ser3) and cofillin (1:1000Cell Signaling, Beverly, MA, USA), actin (1:4000Cell Signaling, Beverly, MA, USA). Subsequently, the membranes were incubated with the corresponding horseradish peroxidase (HRP)-conjugated secondary antibodies (Bio-Rad, Hercules, CA, USA). An enhanced chemiluminescence kit (Bio-Rad, Hercules, CA, USA) was used. […] Total protein expression was quantified using the ImageJ software (http://rsb.info.nih.gov/ij/). […]

HGC27-R cells [5] = assay: Muse caspase 3/7 activation assay; assay type: cell-based, human; details: 48 h
Text: (§2) After the specified drug treatments, the cells were processed using the Muse Annexin V/Dead Cell Assay Kit (Luminex Corporation, Austin, USA) for quantitative analysis of live, early/ late apoptotic, and dead cells on a Muse Cell Analyzer. Briefly, the assay utilized Annexin V to detect phosphatidylserine on the external membrane of apoptotic cells. The fluorescent signal emitted by dye-conjugated antibodies was detected by flow cytometry technology (Muse Cell Analyzer, Luminex Corporation, Austin, USA). 7-Amino-Actinomycin D (7-AAD) dead cell marker was also used. The cells were then analyzed according to the user’s guide. […] After 48 h treatments the cells were processed according to the user’s guide and analyzed with the Muse caspase-3/7 kit (Millipore).The assay provides the relative percentage of living, early/late apoptotic or dead cells.

NCI-N87 cells [6] = assay: Muse caspase 3/7 activation assay; assay type: cell-based, human
Text: as §2

HGC27-S cells [7] = assay: Muse caspase 3/7 activation assay; assay type: cell-based, human; details: 48 h
Text: as §2

CB2R [8] = test system: CB2R; parameters: method as in PMID 7776818, PMID 10188977, PMID 36657299, PMID 20393015; details: cited from earlier work
NCI-N87 cells [9] = assay: MTT cytotoxicity assay; assay type: cell-based, human; details: read-out: Cytotoxic activity IC50±SEM
[10] = single treatment (4 nM PTX, 6 µM AM630, 10 µM others), untreated 18.9%
[11] = NCI-N87, combination with 2 nM PTX, PTX alone 14.6%
[12] = NCI-N87, single treatment (2 nM PTX, 6 µM AM630, 10 µM others), untreated 6.35%
[13] = combination with 4 nM PTX, PTX alone 26.2%
[14] = single treatment (4 nM PTX, 6 µM AM630, 10 µM others), untreated 13.05%

Row | Structure (SMILES) | Ki (CB2R [1]) | IC50 (HGC27-R cells [2]; 48h) | IC50 (HGC27-R cells [2]; 72h) | IC50 (AGS cells; 48h) | IC50 (AGS cells; 72h) | IC50 (HGC27-S cells [3]; 48h) | IC50 (HGC27-S cells [3]; 72h) | expression/activation of PI3K/Akt/mTOR and ERK1/2 pathway proteins (western blot) (HGC27-S cells [4]) | apoptotic cells (caspase 3/7 activation) (HGC27-R cells [5]; combination with 4 nM PTX) | apoptotic cells (caspase 3/7 activation) (HGC27-R cells [5]; [10]) | cells with activated caspase 3/7 (NCI-N87 cells [6]; [11]) | cells with activated caspase 3/7 (NCI-N87 cells [6]; [12]) | apoptotic cells (caspase 3/7 activation) (HGC27-S cells [7]; [13]) | apoptotic cells (caspase 3/7 activation) (HGC27-S cells [7]; [14]) | EC50 (CB2R [8]) | IC50 (NCI-N87 cells [9]; 48h) | IC50 (NCI-N87 cells [9]; 72h) | further results
1 | COc1ccc(C(=O)c2c(C)n(CCN3CCOCC3)c3cc(I)ccc23)cc1 [AM630, reference compound] | 0.0312 µM | 19.6 ± 6.15 µM | 19.1 ± 0.93 µM | 13.4 µM | 7.5 ± 1.2 µM | 20.4 µM | 13.7 ± 1.4 µM | significant decrease in PI3K protein expression | 62.4% | 32.9% | 15.9% | 9.5% | 44.3% | only a slight increase | 0.0009 µM | 22.7 µM | 15.6 ± 0.26 µM | –
2 | CCCCCNc1ccccc1C(=O)NC12CC3CC(CC(C3)C1)C2 [ASF151] | 0.0557 ± 0.0102 µM | 27.4 µM | 28 ± 0.63 µM | 33 µM | 42.3 ± 2.2 µM | 49 µM | 30.1 ± 0.95 µM | no effect was detected | 50.4% | 42% | 15.9% | 9.5% | no further increase over PTX | 20.25% | 0.56 µM | 33.1 µM | 29.3 ± 3.84 µM | –
3 | O=C(NC12CC3CC(CC(C3)C1)C2)c1ccccc1OCc1ccccc1 [CC48] | 0.0148 ± 0.00449 µM | 21.01 ± 0.002 µM | – | – | – | – | – | significant decrease in PI3K protein expression | 61.4% | 33.8% | 23.3% | 17.4% | 62.7% | 21% | 0.124 µM | – | – | IC50 (HGC27-R cells [2]; Homo sapiens, 48 h): 21 µM; IC50 (HGC27-R cells [2]; Homo sapiens, 72 h): 21.2 ± 0.41 µM; IC50 (AGS cells; Homo sapiens, 48h): 57 µM; IC50 (AGS cells; Homo sapiens, 72h): 9.8 µM; IC50 (HGC27-S cells [3]; Homo sapiens, 48h): 11.6 µM; IC50 (HGC27-S cells [3]; Homo sapiens, 72h): 14.5 ± 0.34 µM; dead cells (NCI-N87 cells [6]; NCI-N87, single treatment, control 5.8% / 5.6%): 10.4%; dead cells (HGC27-S cells [7]; single treatment, untreated 6.6%): without affecting the number of dead cells; IC50 (NCI-N87 cells [9]; Homo sapiens, 48h): 15.1 µM; IC50 (NCI-N87 cells [9]; Homo sapiens, 72h): 9.42 ± 0.22 µM

— paper PMC12265377, “CC48 a new CB2R agonist/FAAH inhibitor dual drug blocks gastric cancer progression and overcomes paclitaxel resistance” (Journal of Experimental & Clinical Cancer Research : CR, 2025)
